Key:
Format in all cases: cell-based
[1] = target: T1, human β3 adrenergic receptor (Homo sapiens, UniProt P13945); experiment: cAMP accumulation (SPA) in CHO cells transfected with human β3 adrenergic receptor; conditions: for EC50: CHO cells expressing human β3-AR, cAMP, 30 min incubation, 10^−9 M to 10^−5 M, read-out: beta-3 EC50; for beta-3 (IA) maximal response relative to isoproterenol: IA = % activity compound / % activity isoproterenol at 10^−5 M, CHO human β3 cells
T1 construct: Full length β3 AR clones (402 amino acids) containing the last 6 amino acids of hβ3— AR are prepared; expressed in transfected cells; host or cells: CHO cells
T1 sequence (P13945 whole entry): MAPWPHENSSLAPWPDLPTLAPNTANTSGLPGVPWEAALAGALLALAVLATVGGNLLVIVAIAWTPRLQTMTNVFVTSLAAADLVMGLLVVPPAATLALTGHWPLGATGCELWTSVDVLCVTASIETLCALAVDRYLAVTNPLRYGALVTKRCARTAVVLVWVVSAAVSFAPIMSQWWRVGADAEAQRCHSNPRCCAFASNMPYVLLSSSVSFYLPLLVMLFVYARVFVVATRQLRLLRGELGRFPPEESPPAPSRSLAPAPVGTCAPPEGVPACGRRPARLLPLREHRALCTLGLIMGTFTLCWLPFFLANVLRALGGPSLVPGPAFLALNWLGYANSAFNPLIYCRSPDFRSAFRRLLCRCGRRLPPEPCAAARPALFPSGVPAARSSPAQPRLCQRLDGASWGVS
Method: (§1) The ability of compounds of this invention to treat or inhibit disorders related to insulin resistance or hyperglycemia was established with representative compounds of this invention in the following standard pharmacological test procedures, which measured the binding selectivity to the β1, β2, and β3 adrenergic receptors. Binding to the receptors was measured in Chinese Hamster ovary (CHO) cells that were transfected with adrenergic receptors. The following briefly summarizes the procedures used and results obtained.
Cloning of Human β3-AR Genomic DNA: cDNA was constructed by ligating four polymerase chain reaction (PCR) products using the following primers: an ATG-Narl fragment, sense primer 5′-[…]3′ and anti-sense primer 5′[…]3′; a Narl-Accl fragment, 5′[…]3′ as sense and 5′[…]3′ as anti-sense primer; an Accli-Styl fragment, sense primer 5′[…]3′ and anti-sense primer 5′[…]3′ and a Styl-TAG fragment, with sense primer 5′[…]3′ and anti-sense primer 5′[…]3′. The corresponding primer sequences are described in Mantzoros, C. S., et.al., Diabetes 45: 909-914 (1996). The four fragments are ligated into a pUC 18 plasmid (Gibco-BRL) and sequenced. Full length β3 AR clones (402 amino acids) containing the last 6 amino acids of hβ3— AR are prepared with the β3-βARpcDNA3from ATTC.
(§2) Binding Procedure: Clones expressing receptor levels of 70 to 110 fmoles/mg protein were used in the test procedures. CHO cells were grown in 24-well tissue culture plates in Dulbecco's Modified Eagle Media with 10% fetal bovine serum, MEM non-essential amino acids, Penicillin-Streptompycin and Geneticin. On the day of test procedure, growth medium was replaced with preincubation media (Dulbecco's Modified Eagle Media and incubated for 30 minutes at 37° C. Preincubation medium was replaced with 0.2 ml treatment medium containing DMEM media containing 250 μM IBMX (isobutyl-1-methylxantine) plus 1 mM ascorbic acid with test compound dissolved in DMSO. Test compounds were tested over a concentration range of 10^−9 M to 10^−5 M for β3 cells and 10^−8 to 10^−4 M for β1 and β2 transfected cells. Isoproterenol (10^−5 M) was used as an internal standard for comparison of activity. Cells were incubated at 37° C. on a rocker for 30 min with the β3 cells and 15 min for β1 and β2 cells. Incubation was stopped with the addition of 0.2N HCl and neutralized with 2.5N NaOH. The plates, containing the cells and neutralized media, were stored at −20 degrees celsius until ready to test for cAMP using the SPA test kit (Amersham).
(§3) Data Analysis and Results: Data collected from the SPA test procedure were analyzed as per cent of the maximal isoproterenol response at 10^−5 M. Activity curves were plotted using the SAS statistical and graphics software. EC50 values were generated for each compound and the maximal response (IA) developed for each compound is compared to the maximal response of isoproternol at 10^−5 M from the following formula:
(§4) IA=% activity compound/% activity isoproterenol

[2] = target: T2, human β2-adrenergic receptor (Homo sapiens, UniProt P07550); experiment: cAMP accumulation (SPA) in CHO cells transfected with human β2 adrenergic receptor; conditions: for EC50: CHO cells transfected with human β2-AR, cAMP, 15 min incubation, 10^−8 to 10^−4 M, read-out: beta-2 EC50; for beta-2 (IA) maximal response relative to isoproterenol: IA = % activity compound / % activity isoproterenol at 10^−5 M, CHO human β2 cells
T2 construct: expressed in transfected cells; host or cells: CHO cells
Method: as §1
(§5) Transfection of CHO cells with β1 and β2 adrenergic receptors: CHO cells were transfected with human β1- or β2-adrenergic receptors as described in Tate, K. M., Eur. J. Biochem., 196:357-361 (1991).
as §2, §3, §4

[3] = target: T3, human β1-adrenergic receptor (Homo sapiens, UniProt P08588); experiment: cAMP accumulation (SPA) in CHO cells transfected with human β1 adrenergic receptor; conditions: for EC50: CHO cells transfected with human β1-AR, cAMP, 15 min incubation, 10^−8 to 10^−4 M, read-out: beta-1 EC50; for beta-1 (IA) maximal response relative to isoproterenol: IA = % activity compound / % activity isoproterenol at 10^−5 M, CHO human β1 cells
T3 construct: expressed in transfected cells; host or cells: CHO cells
T3 sequence (P08588 whole entry): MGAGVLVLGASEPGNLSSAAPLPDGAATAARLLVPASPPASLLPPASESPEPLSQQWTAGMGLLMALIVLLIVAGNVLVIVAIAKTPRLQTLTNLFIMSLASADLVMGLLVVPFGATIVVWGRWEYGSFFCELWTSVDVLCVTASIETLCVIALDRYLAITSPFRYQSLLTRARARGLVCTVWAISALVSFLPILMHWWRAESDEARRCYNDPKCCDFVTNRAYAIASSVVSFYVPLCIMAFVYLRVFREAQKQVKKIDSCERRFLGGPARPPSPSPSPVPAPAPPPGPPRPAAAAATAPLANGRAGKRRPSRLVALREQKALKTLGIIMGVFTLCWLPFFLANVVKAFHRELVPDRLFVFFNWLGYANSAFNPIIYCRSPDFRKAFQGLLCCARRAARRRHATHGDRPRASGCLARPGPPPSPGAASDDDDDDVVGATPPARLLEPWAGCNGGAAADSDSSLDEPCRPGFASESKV
Method: as §1, §5, §2, §3, §4

| EC50 [1] [nM] | beta-3 (IA) maximal response relative to isoproterenol [1] | EC50 [2] [nM] | beta-2 (IA) maximal response relative to isoproterenol [2] | EC50 [3] [nM] | beta-1 (IA) maximal response relative to isoproterenol [3] | Compound |
| --- | --- | --- | --- | --- | --- | --- |
| 15 | (1.1) | 310 | (0.59) | 2100 | (0.66) | CCCCN(Cc1ccccc1)S(=O)(=O)c1ccc(N2CCC(NCC(O)c3ccc(O)c(NS(C)(=O)=O)c3)CC2)cc1 (stereo not shown) [Example 3, N-Benzyl-N-butyl-4-{4-[2-hydroxy-2-(4-hydroxy-3-methanesulfonylamino-phenyl)-ethylamino]-piperidin-1-yl}-benzenesulfonamide] |
| 200 | (0.76) | – | – | – | – | O=S(=O)(NCc1ccccc1)c1ccc(N2CCC(NC[C@H](O)COc3ccc(O)cc3)CC2)cc1 [Example 6, N-Benzyl-4-{4-[(2S)-2-hydroxy-3-(4-hydroxy-phenoxy)-propylamino]-piperidin-1-yl}-benzenesulfonamide] |
| 4 | (1.2) | 3600 | (0.36) | 9800 | (1.1) | CCOC(=O)[C@H]1CCCN1S(=O)(=O)c1ccc(N2CCC(NC[C@H](O)c3ccc(O)c(NS(C)(=O)=O)c3)CC2)cc1 [Example 30, 1-(4-{4-[(2R)-2-Hydroxy-2-(4-hydroxy-3-methanesulfonylamino-phenyl)-ethylamino]-piperidin-1-yl}-benzenesulfonyl)-pyrrolidine-(2R)-2-carboxylic Acid Ethyl Ester] |
| 160 | (0.93) | 16000 | (0.67) | – | (0.23) | CS(=O)(=O)Nc1cc([C@@H](O)CNC2CCN(c3ccc(S(=O)(=O)N4CCN(CC(=O)O)CC4)cc3)CC2)ccc1O [Example 65] |
| 21 | (1.1) | 10000 | (0.21) | 10000 | (0.18) | COC(=O)N(CC(=O)O)S(=O)(=O)c1ccc(N2CCC(NC[C@H](O)c3ccc(O)c(NS(C)(=O)=O)c3)CC2)cc1 [Example 60, [[(4-{4-[((2R)-2-Hydroxy-2-{4-hydroxy-3-[(methylsulfonyl)amino]phenyl}-ethyl)amino]piperidin-1-yl}phenyl)sulfonyl](methoxycarbonyl)amino]acetic Acid] |
| 5 | (0.96) | – | (0.17) | 1000 | (0.48) | CC(C)(C)OC(=O)CN(Cc1cc(F)ccc1F)S(=O)(=O)c1ccc(N2CCC(NC[C@H](O)c3ccc(O)c(NS(C)(=O)=O)c3)CC2)cc1 [Example 67, tert-Butyl {(2,5-difuorobenzyl)[(4-{4-[((2R)-2-hydroxy-2-{4-hydroxy-3-[(methylsulfonyl)amino]phenyl}ethyl)amino]piperidin-1-yl}phenyl)sulfonyl]-amino}acetate] |
| 23 | (0.98) | 270 | (0.29) | 240 | (0.41) | CS(=O)(=O)Nc1cc([C@@H](O)CNC2CCN(c3ccc(S(=O)(=O)NCC4CC4)cc3)CC2)ccc1O [Example 26, N-Cyclopropylmethyl-4-{4-[(2R)-2-hydroxy-2-(4-hydroxy-3-methanesulfonylamino-phenyl)-ethylamino]-piperidin-1-yl}-benzenesulfonamide] |
| 1 | (1) | 90 | (0.68) | 1280 | (0.58) | 1-(4-{4-[2-Hydroxy-2-(4-hydroxy-3-methanesulfonylmethyl-phenyl)ethylamino]-piperidin-1-yl}-benzenesulfonylamino)cyclohexane Carboxylic Acid Ethyl Ester [Example 43] |
| 16 | (0.89) | 900 | (0.42) | 5600 | (0.43) | CCOC(=O)[C@H](CC(C)C)NS(=O)(=O)c1ccc(N2CCC(NC[C@H](O)c3ccc(O)c(NS(C)(=O)=O)c3)CC2)cc1 [Example 37, Ethyl (2S)-2-{[(4-{4-[((2R)-2-Hydroxy-2-{4-hydroxy-3-[(methylsulfonyl)amino]-phenyl}ethyl)amino]-1-piperidinyl}phenyl)sulfonyl]amino}-4-methylpentanoate] |
| 20 | (0.8) | – | (0.01) | 600 | (0.15) | COc1ccc(NS(=O)(=O)c2ccc(N3CCC(NC[C@H](O)COc4cccc5[nH]c(=O)[nH]c45)CC3)cc2)cc1OC [Example 7, N-(3,4-Dimethoxy-phenyl)-4-{4-[(2S)-2-hydroxy-3-(2-oxo-2,3-dihydro-1H-benzoimidazol-4-yloxy)-propylamino]-piperidin-1-yl}-benzenesulfonamide] |
| 410 | (0.94) | – | – | – | – | CS(=O)(=O)Nc1cc([C@@H](O)CNC2CCN(c3ccc(S(=O)(=O)N(CC(=O)O)CC(=O)O)cc3)CC2)ccc1O [Example 55, 2-((Carboxymethyl)[(4-{4-[((2R)-2-hydroxy-2-{4-hydroxy-3-[(methylsulfonyl)amino]phenyl)ethyl)amino]-1-piperidinyl}phenyl)sulfonyl]amino}acetic Acid] |
| 34 | (1.2) | – | (0.23) | – | (0.24) | CS(=O)(=O)Nc1cc([C@@H](O)CNC2CCN(c3ccc(S(=O)(=O)NCC(=O)O)cc3)CC2)ccc1O [Example 53, 2-{[(4-{4-[((2R)-2-hydroxy-2-{4-hydroxy-3-[(methylsulfonyl)amino]phenyl}ethyl)amino]-1-piperidinyl}phenyl)sulfonyl]amino}acetic Acid] |
| 1 | (1) | 370 | (0.35) | 1320 | (0.69) | CS(=O)(=O)Nc1cc([C@@H](O)CNC2CCN(c3ccc(S(=O)(=O)N4CCCCC4)cc3)CC2)ccc1O [Example 42, N-{2-Hydroxy-5-[(1R)-1-hydroxy-2-({1-[4-(1-piperidinylsulfonyl)phenyl]-piperidinyl}-4-amino)ethyl]phenyl}methanesulfonamide] |
| 11 | (1.1) | – | (0.04) | 49000 | (0.66) | CS(=O)(=O)Nc1cc([C@@H](O)CNC2CCN(c3ccc(S(=O)(=O)N4CCC[C@@H]4C(=O)O)cc3)CC2)ccc1O [Example 35, 1-(4-{4-[(2R)-2-Hydroxy-2-(4-hydroxy-3-methanesulfonylamino-phenyl)-ethylamino]-piperidin-1-yl}-benzenesulfonyl)-pyrrolidine-(2R)-2-carboxylic Acid] |
